In series [1] the test system is Enterococcus faecalis (NCTC12697). Format: cell-based. The procedure:
(§1) The antimicrobial activity of synthetic peptides was determined using the minimal inhibitory concentration (MIC) and the minimal bactericidal concentration […] performed by the microdilution method in a 96 well plate. Gram-positive bacteria, Staphylococcus aureus (NCTC 10788), methicillin-resistant Staphylococcus aureus (MRSA, NCTC 12493), Enterococcus faecalis (NCTC12697), and Gram-negative bacteria, Escherichia coli (NCTC 10418), Pseudomonas aeruginosa (ATCC 27853), Klebsiella pneumoniae (ATCC 43816) and the pathogenic yeast Candida albicans (NCYC 1467). All bacteria were cultured in MHB and C. albicans was cultured in YPD broth. Norfloxacin and amphotericin B were used as positive controls for bacteria and yeast, respectively.

The subject of series [2] is Candida albicans (NCYC 1467). It counts as cell-based. The procedure: as §1
Series [3] relates to Pseudomonas aeruginosa (ATCC 27853). Format: cell-based. The procedure:
as §1

The subject of series [4] is Staphylococcus aureus (NCTC 10788). Format: cell-based. The procedure:
as §1

A further series concerns HMEC-1 cells. The conditions noted are these: for drop in cell viability of HMEC-1 cells: 100 µM.
Series [5] concerns methicillin-resistant Staphylococcus aureus (MRSA, NCTC 12493). It counts as cell-based. The procedure: as §1
In series [6] the test system is Klebsiella pneumoniae (ATCC 43816). It counts as cell-based. Here is the method: as §1
For series [7], the system named is Escherichia coli (NCTC 10418). Format: cell-based. Here is the method: as §1

≈ marks a conversion by molar mass, not a printed value. Where a SMILES comes first, the peptide text is derived from it. Where no end group is shown, it is not given here.

Procedure for HMEC-1 cells: The cytotoxicity of BR2GK and its derivatives were determined by hemolysis assay and MTT assay on the dermal microvascular endothelium cell line, HMEC-1 (ATCC CRL-3243).
MTT assays were conducted as outlined previously [35]. Ten thousand cells were seeded in each well of a 96-well plate. Cells were treated with different peptide concentrations for 24 h. Triton (0.1%) X-100 was used as a positive control.
Procedure for horse erythrocytes: Horse erythrocytes (TCS Biosciences Ltd., Buckingham, UK) were subjected to the hemolysis of all synthetic peptides as described previously [35]. Briefly, the erythrocytes were washed and resuspended by PBS to achieve a 4% suspension. The test peptide solutions were transferred into the aforementioned suspension and kept at a constant 37 °C for 2 h, while Triton X-100 (Sigma-Aldrich, St. Louis, MO, USA) was employed to replace the peptide solution for establishing the positive control. The supernatants after incubation were measured at 470 nm.

`CC(C)C[C@H](NC(=O)[C@H](CCC(N)=O)NC(=O)[C@H](CCC(N)=O)NC(=O)[C@H](C)NC(=O)CNC(=O)[C@H](C)NC(=O)[C@H](CCCCN)NC(=O)CNC(=O)[C@@H](NC(=O)[C@H](CCC(N)=O)NC(=O)[C@H](CCCCN)NC(=O)[C@H](CC(C)C)NC(=O)[C@H](CC(C)C)NC(=O)[C@H](Cc1ccc(O)cc1)NC(=O)[C@H](CCCCN)NC(=O)[C@H](C)NC(=O)CNC(=O)[C@H](C)NC(=O)[C@H](CCCCN)NC(=O)[C@H](Cc1ccccc1)NC(=O)[C@H](CC(C)C)NC(=O)[C@H](CO)NC(=O)[C@H](CO)NC(=O)[C@H](Cc1ccccc1)NC(=O)CN)C(C)C)C(=O)N[C@@H](C)C(=O)N[C@H]1CSSC[C@@H](C(=O)O)NC(=O)[C@H](CC(N)=O)NC(=O)[C@H](CC(N)=O)NC(=O)[C@H](C)NC(=O)[C@H](C)NC(=O)[C@H](CCCCN)NC1=O` [BR2GK] (HELM PEPTIDE1{G.F.S.S.L.F.K.A.G.A.K.Y.L.L.K.Q.V.G.K.A.G.A.Q.Q.L.A.C.K.A.A.N.N.C}$PEPTIDE1,PEPTIDE1,27:R3-33:R3$$$V2.0): the “hemolysis of horse erythrocytes at 256 µM” value in the series on horse erythrocytes was “more than 40%”. Further, in [1], the “MBC E. faecalis” value is on record as 256 µM (≈ 867 µg/mL) and the “MIC E. faecalis” value amounted to 64 µM (≈ 217 µg/mL). Also, the “MIC C. albicans” value in series [2] came out at 256 µM (≈ 867 µg/mL). Besides, the “MIC P. aeruginosa” value in series [3] is reported as over 512 µM. In [4], the “MBC S. aureus” value was 256 µM (≈ 867 µg/mL) and the “MIC S. aureus” value came out at 64 µM (≈ 217 µg/mL). The “cytotoxicity on HMEC-1 cells at 100 µM” value with HMEC-1 cells is “significant cytotoxicity”.

In [5], “GFSSLFKAGAKYLPKQVGKAGAQQL-NH2 [[P^14]BR2GK(1-25)a]” registered an MBC MRSA of over 512 µM and an MIC MRSA of over 512 µM. For the same molecule, in series [6], the MBC K. pneumoniae is over 512 µM and the MIC K. pneumoniae was over 512 µM. In [7], this molecule yielded an MBC E. coli of over 512 µM and an MIC E. coli of over 512 µM. In series [3], this molecule registered an MBC P. aeruginosa of over 512 µM and an MIC P. aeruginosa of over 512 µM. Further, in series [4], the MBC S. aureus is over 512 µM and the MIC S. aureus turned out to be 512 µM.

On to “GFSSLFKAGAKYLAKQVGKAGAQQL-NH2 [[A^14]BR2GK(1-25)a]”, for which, in series [1], the “MBC E. faecalis” value was determined as 16 µM and the “MIC E. faecalis” value came out at 8 µM. Besides, in series [2], the “MBC C. albicans” value is 32 µM and the “MIC C. albicans” value is 16 µM. In addition, in series [5], the “MBC MRSA” value is given as 64 µM and the “MIC MRSA” value is 16 µM. Moreover, in [6], the “MBC K. pneumoniae” value is listed as 256 µM and the “MIC K. pneumoniae” value came out at 128 µM. In [7], the “MBC E. coli” value worked out at 32 µM and the “MIC E. coli” value was 8 µM. For the same molecule, in [3], the “MBC P. aeruginosa” value is listed as 128 µM and the “MIC P. aeruginosa” value stood at 32 µM. In addition, in series [4], the “MBC S. aureus” value is given as 16 µM and the “MIC S. aureus” value stood at 8 µM.

As to “GFSSLFKAGAKYLLKQVGKAGAQQL-NH2 [BR2GK(1-25)a]”, in the series on horse erythrocytes, the “hemolysis of horse erythrocytes at 256 µM” value is “around 20%”. Also, in series [1], the “MBC E. faecalis” value turned out to be 16 µM and the “MIC E. faecalis” value was determined as 4 µM. For the same molecule, in series [2], the “MBC C. albicans” value is 16 µM and the “MIC C. albicans” value is 4 µM. For the same molecule, in series [5], the “MBC MRSA” value was 16 µM and the “MIC MRSA” value came to 4 µM. Further, in [6], the “MBC K. pneumoniae” value is given as 32 µM and the “MIC K. pneumoniae” value is recorded as 16 µM. Also, in [7], the “MBC E. coli” value came out at 8 µM and the “MIC E. coli” value is given as 4 µM. In addition, in series [3], the “MBC P. aeruginosa” value came to 32 µM and the “MIC P. aeruginosa” value amounted to 8 µM. In addition, in [4], the “MBC S. aureus” value is on record as 8 µM and the “MIC S. aureus” value was determined as 4 µM. In the series with HMEC-1 cells, the “drop in cell viability of HMEC-1 cells” value is on record as “around 15%”.

Consider “GFSSLFKAGAKYLRKQVGKAGAQQL-NH2 [[R^14]BR2GK(1-25)a]”, for which, in [1], the “MBC E. faecalis” value is listed as 32 µM and the “MIC E. faecalis” value was 16 µM. In addition, in series [2], the “MBC C. albicans” value was found to be 128 µM and the “MIC C. albicans” value is listed as 64 µM. Also, in series [5], the “MBC MRSA” value is reported as 128 µM and the “MIC MRSA” value was 64 µM. In [6], the “MBC K. pneumoniae” value is 256 µM and the “MIC K. pneumoniae” value is listed as 128 µM. Also, in [7], the “MBC E. coli” value came out at 16 µM and the “MIC E. coli” value was found to be 8 µM. Also, in series [3], the “MBC P. aeruginosa” value was 32 µM and the “MIC P. aeruginosa” value is on record as 16 µM. In addition, in series [4], the “MBC S. aureus” value amounted to 32 µM and the “MIC S. aureus” value came to 16 µM. Moreover, in the series with HMEC-1 cells, the “drop in cell viability of HMEC-1 cells” value is “around 15%”.

With “GFSSLFKAGAKYLKKQVGKAGAQQL-NH2 [[K^14]BR2GK(1-25)a]”, in [1], the “MBC E. faecalis” value is 64 µM and the “MIC E. faecalis” value was 16 µM. Also, in series [2], the “MBC C. albicans” value turned out to be 128 µM and the “MIC C. albicans” value was found to be 64 µM. For the same molecule, in series [5], the “MBC MRSA” value worked out at 128 µM and the “MIC MRSA” value was determined as 64 µM. Besides, in [6], the “MBC K. pneumoniae” value was 256 µM and the “MIC K. pneumoniae” value is on record as 128 µM. In [7], the “MBC E. coli” value was 32 µM and the “MIC E. coli” value is recorded as 8 µM. In addition, in series [3], the “MBC P. aeruginosa” value amounted to 64 µM and the “MIC P. aeruginosa” value is 16 µM. For the same molecule, in series [4], the “MBC S. aureus” value was determined as 32 µM and the “MIC S. aureus” value came out at 16 µM. Moreover, the “drop in cell viability of HMEC-1 cells” value in the series with HMEC-1 cells is “around 15%”.

The values above are taken from paper PMC7168151, “Brevinin-2GHk from Sylvirana guentheri and the Design of Truncated Analogs Exhibiting the Enhancement of Antimicrobial Activity” (Antibiotics, 2020).
